US8802712B2, “Pyrazoloquinolines” (Merck Patent GmbH, priority 2010, dated 2014)

Target: DNA-PK (Homo sapiens (Human), UniProt P78527)
Experiment: DNA-PK/Biochemical Assay (FlashPlate kinase assay)
Details: 5 μM ATP, 90 min, room temperature
Protocol: The kinase assay was carried out in streptavidin-coated […] microtitre FlashPlates®. To this end, 1.5 μg of the DNA-PK/protein complex and 100 ng of biotinylated substrate, such as, for example, […] biotin-NH2 (“biotin-DNA-PK peptide”), in a total volume of 36.5 μl (34.25 mM HEPES/KOH, 7.85 mM Tris-HCl, 68.5 mM KCl, 5 μM ATP, 6.85 mM MgCl2, 0.5 mM EDTA, 0.14 mM EGTA, 0.69 mM DTT, pH 7.4), were incubated at room temperature for 90 min with 500 ng of DNA from calf thymus, 0.1 μCi of 33P-ATP and 1.8% of DMSO per well with or without the test compound. The reaction was stopped using 50 μl/well of 200 mM EDTA. After incubation for a further 30 min at room temperature, the liquid was removed. Each well was washed three times with 100 μl of 0.9% sodium chloride solution. A non-specific reaction (blank value) was determined using 10 μM of a proprietary kinase inhibitor. The radioactivity measurement was carried out by means of a TopCount. IC50 values were calculated in RS1. • Literature: Kashishian et al. (2003) Molecular Cancer Therapeutics 1257.

Row | Structure (SMILES) | IC50 [nM]
1 | COc1cc2ncc3[nH]nc(-c4ccc(C#N)cc4)c3c2cc1OC [Compound 1, 4-(7,8-Dimethoxy-3H-pyrazolo[3,4-c]quinolin-1-yl)benzonitrile] | < 100
2 | COc1cc2ncc3c(c(-c4ccc(C#N)cc4)nn3C)c2cc1OC [Compound 2, 4-(7,8-Dimethoxy-3-methyl-3H-pyrazolo-[3,4-c]quinolin-1-yl)-benzonitrile] | < 100
3 | COc1cc2ncc3c(c(-c4ccc(C#N)c(Br)c4)nn3C)c2cc1OC [Compound 3] | < 100
4 | COc1cc2ncc3c(c(-c4ccc(C#N)cc4)nn3C)c2cc1O [Compound 5, 4-(8-Hydroxy-7-methoxy-3-methyl-3H-pyrazolo-[3,4-c]quinolin-1-yl)-benzonitrile] | < 100
5 | COc1cc2ncc3c(c(-c4ccc(C#N)cc4F)nn3C)c2cc1O [Compound 6, 3-Fluoro-4-(8-hydroxy-7-methoxy-3-methyl-3H-pyrazolo[3,4-c]quinolin-1-yl)benzonitrile] | < 100
6 | COc1cc2ncc3[nH]nc(-c4ccc(C#N)c(Cl)c4)c3c2cc1OC [Compound 7, 2-Chloro-4-(7,8-dimethoxy-3H-pyrazolo-[3,4-c]quinolin-1-yl)-benzonitrile] | < 100
7 | COc1cc2ncc3c(c(-c4ccc(C#N)cc4)nn3C)c2cc1O[C@@H](C(N)=O)c1ccc(F)cc1 [Compound 9, (R)-2-[1-(4-Cyanophenyl)-7-methoxy-3-methyl-3H-pyrazolo[3,4-c]quinolin-8-yloxy]-2-(4-fluorophenyl)-acetamide] | < 100
8 | COc1cc2ncc3c(c(-c4ccc(C#N)cc4)nn3C)c2cc1O[C@H](C(N)=O)c1ccc(F)cc1 [Compound 10, (S)-2-[1-(4-Cyanophenyl)-7-methoxy-3-methyl-3H-pyrazolo[3,4-c]quinolin-8-yloxy]-2-(4-fluorophenyl)-acetamide] | < 100
9 | COc1cc2ncc3c(c(-c4ccc(C#N)cc4)nn3C)c2cc1OCc1ccncc1 [Compound 11, 4-[7-Methoxy-3-methyl-8-(pyridin-4-ylmethoxy)-3H-pyrazolo[3,4-c]quinolin-1-yl]-benzonitrile] | < 100
10 | COc1cc2ncc3c(c(-c4ccc(C#N)cc4)nn3C)c2cc1OCc1cccnc1 [Compound 12, 4-[7-Methoxy-3-methyl-8-(pyridin-3-ylmethoxy)-3H-pyrazolo[3,4-c]quinolin-1-yl]-benzonitrile] | < 100
11 | COc1cc2ncc3c(c(-c4ccc(C#N)cc4)nn3C)c2cc1OCc1ccccn1 [Compound 13, 4-[7-Methoxy-3-methyl-8-(pyridin-2-ylmethoxy)-3H-pyrazolo[3,4-c]quinolin-1-yl]-benzonitrile] | > 500
12 | COc1cc2ncc3c(c(-c4ccc(C#N)cc4)nn3C)c2cc1OCc1ccccc1C#N [Compound 14, 4-[8-(2-Cyanobenzyloxy)-7-methoxy-3-methyl-8-3H-pyrazolo[3,4-c]quinolin-1-yl]-benzonitrile] | 100 to 500
13 | COc1cc2ncc3c(c(-c4ccc(C#N)cc4)nn3C)c2cc1OCc1ccc(F)cc1 [Compound 15, 4-[8-(4-Fluorobenzyloxy)-7-methoxy-3-methyl-3H-pyrazolo[3,4-c]quinolin-1-yl]-benzonitrile] | < 100
14 | COc1cc2ncc3c(c(-c4ccc(C#N)cc4)nn3C)c2cc1OC(F)F [Compound 16, 4-(8-Difluoromethoxy-7-methoxy-3-methyl-3H-pyrazolo[3,4-c]quinolin-1-yl)-benzonitrile] | < 100
15 | COc1cc2ncc3c(c(-c4ccc(C#N)cc4)nn3C)c2cc1OC(F)(F)c1ccccc1 [Compound 17, 4-[8-(Difluorophenyl-methoxy)-7-methoxy-3-methyl-3H-pyrazolo[3,4-c]-quinolin-1-yl]benzonitrile] | 100 to 500
16 | COC(=O)C(Oc1cc2c(cc1OC)ncc1c2c(-c2ccc(C#N)cc2)nn1C)c1ccc(F)cc1 (stereo not shown) [Compound 18, Methyl 1-(4-cyanophenyl)-7-methoxy-3-methyl-3H-pyrazolo[3,4-c]quinolin-8-yloxy]-(4-fluorophenyl)-acetate] | 100 to 500
17 | COc1cc2ncc3c(c(-c4ccc(C#N)cc4)nn3C)c2cc1OC(C(=O)O)c1ccc(F)cc1 (stereo not shown) [Compound 19, [1-(4-Cyanophenyl)-7-methoxy-3-methyl-3H-pyrazolo[3,4-c]quinolin-8-yloxy]-(4-fluorophenyl)acetic acid] | < 100
18 | COc1cc2ncc3c(c(-c4ccc(C#N)cc4)nn3C)c2cc1OC(C(=O)O)c1ccccc1 (stereo not shown) [Compound 20, [1-(4-Cyanophenyl)-7-methoxy-3-methyl-3H-pyrazolo[3,4-c]quinolin-8-yloxy]phenylacetic acid] | < 100
19 | COc1cc2ncc3c(c(-c4ccc(C#N)cc4)nn3C)c2cc1OC(C(=O)O)c1cccs1 (stereo not shown) [Compound 21, [1-(4-Cyanophenyl)-7-methoxy-3-methyl-3H-pyrazolo[3,4-c]quinolin-8-yloxy]thiophen-2-ylacetic acid] | < 100
20 | COc1cc2ncc3c(c(-c4ccc(C#N)cc4)nn3C)c2cc1OP(=O)(O)c1ccccc1 [Compound 25, 1-(4-Cyanophenyl)-7-methoxy-3-methyl-3H-pyrazolo[3,4-c]quinolin-8-yl phenylphosphonate] | 100 to 500

Further lines, results first:

Row | IC50 [nM] | Structure (SMILES)
21 | > 500 | COc1cc2ncc3c(c(-c4ccc(C#N)cc4)nn3C)c2cc1OC(C)(C(=O)O)c1ccccc1 (stereo not shown) [Compound 22, 2-[1-(4-Cyanophenyl)-7-methoxy-3-methyl-3H-pyrazolo[3,4-c]quinolin-8-yloxy]-2-phenylpropanoic acid]
22 | < 100 | COc1cc2ncc3c(c(-c4ccc(C#N)cc4F)nn3C)c2cc1OC(C(N)=O)c1ccc(F)cc1 (stereo not shown) [Compound 23, 2-[1-(4-Cyano-2-fluoro-phenyl)-7-methoxy-3-methyl-3H-pyrazolo[3,4-c]quinolin-8-yloxy]-2-(4-fluorophenyl)-acetamide]
23 | 100 to 500 | COc1cc2ncc3c(c(-c4ccc(C#N)cc4)nn3C)c2cc1OS(=O)(=O)c1ccc(C)cc1 [Compound 24, 1-(4-Cyanophenyl)-7-methoxy-3-methyl-3H-pyrazolo[3,4-c]quinolin-8-yl toluene-4-sulfonate]
24 | > 500 | COc1cc2c(cc1OC(F)F)ncc1c2c(-c2ccc(C#N)cc2)nn1C [Compound 26, 4-(7-Difluoromethoxy-8-methoxy-3-methyl-3H-pyrazolo[3,4-c]quinolin-1-yl)-benzonitrile]
25 | < 100 | COc1cc2ncc3c(c(-c4ccc(C#N)cc4)nn3C)c2cc1OCc1ccc(CO)cc1 [Compound 27, 4-[8-(4-Hydroxymethyl-benzyloxy)-7-methoxy-3-methyl-3H-pyrazolo[3,4-c]-quinolin-1-yl]benzonitrile]
26 | 100 to 500 | COc1cc2ncc3c(c(-c4ccc(C#N)cc4)nn3C)c2cc1OCc1cccc(CN2CCOCC2)c1 [Compound 28, 4-[7-Methoxy-3-methyl-8-(3-morpholin-4-ylmethyl-benzyloxy)-3H-pyrazolo-[3,4-c]quinolin-1-yl]-benzonitrile]
27 | > 500 | COc1cc2ncc3c(c(-c4ccc(C#N)cc4)nn3C)c2cc1OCc1ccc(-n2cccn2)nc1 [Compound 29, 4-[7-Methoxy-3-methyl-8-(6-pyrazol-1-ylpyridin-3-ylmethoxy)-3H-pyrazolo-[3,4-c]quinolin-1-yl]-benzonitrile]
28 | 100 to 500 | COc1cc2ncc3c(c(-c4ccc(C#N)cc4)nn3C)c2cc1OCc1cnc2[nH]ccc2c1 [Compound 30, 4-[7-Methoxy-3-methyl-8-(1H-pyrrolo[2,3-b]pyridin-5-ylmethoxy)-3H-pyrazolo-[3,4-c]quinolin-1-yl]-benzonitrile]
